In paper PMC8844822, “SARM1 is a multi-functional NAD(P)ase with prominent base exchange activity, all regulated bymultiple physiologically relevant NAD metabolites” (iScience, 2022):

What was measured:
hSARM1 full length [1] = target: T1, hSARM1 full length (Homo sapiens, UniProt Q6SZW1); assay: NAD(P)ase activity by HPLC (kinetics, substrates, metal ions); format: biochemical; settings: hSARM1; for use as substrate (consumption rate): dinucleotide 250 μM, 25°C, 2–6 h; for effect of metal ion on activity: metal ions 1 mM
T1 construct: Human recombinant SARM1 full length proteins (wild-type and E642A mutant); made in house
T1 sequence (Q6SZW1 28-724): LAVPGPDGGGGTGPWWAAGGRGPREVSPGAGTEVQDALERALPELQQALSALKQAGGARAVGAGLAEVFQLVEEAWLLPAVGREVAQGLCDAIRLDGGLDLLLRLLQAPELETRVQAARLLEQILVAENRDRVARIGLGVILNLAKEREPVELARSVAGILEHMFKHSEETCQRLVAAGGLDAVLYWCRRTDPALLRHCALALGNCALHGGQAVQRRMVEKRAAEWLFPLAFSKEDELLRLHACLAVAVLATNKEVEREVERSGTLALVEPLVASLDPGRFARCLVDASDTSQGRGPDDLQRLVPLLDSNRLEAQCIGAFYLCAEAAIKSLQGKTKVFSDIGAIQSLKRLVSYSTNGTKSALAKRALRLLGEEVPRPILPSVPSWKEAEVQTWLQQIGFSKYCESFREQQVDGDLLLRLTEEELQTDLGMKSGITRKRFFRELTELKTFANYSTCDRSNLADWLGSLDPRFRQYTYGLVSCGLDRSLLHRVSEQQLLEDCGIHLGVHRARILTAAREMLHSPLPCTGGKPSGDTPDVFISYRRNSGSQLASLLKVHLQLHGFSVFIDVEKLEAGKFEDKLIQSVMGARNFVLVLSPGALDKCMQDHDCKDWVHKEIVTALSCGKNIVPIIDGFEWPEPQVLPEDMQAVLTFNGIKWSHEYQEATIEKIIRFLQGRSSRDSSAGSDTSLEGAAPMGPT
Method: (§1) hSARM1 species were routinely assayed by the NAD/NADH-Glo^TM Assay (Promega) while both Aplysia cyclase and CD38 were assayed by fluorometry using ϵNAD ([Orsomando et al., 2000]). […] Other reagents used in addition to, or in place of those above are detailed in text or in figure legends, for example metal ions, free bases, dinucleotide analogues, mononucleotides, and ribosides. Assays were all carried out at 25°C except for temperature studies. Reactions were stopped by HClO4/K2CO3 and analysed by C18-HPLC as reported ([Mori et al., 2014]). Only the acid labile NADH and NADPH were treated with 1 N NaOH and neutralized using 1:1 vol of 1.73 M KH2CO3 while the highly hydrophobic metabolites vacor, VAD, VMN and VR, were analysed by a modified C18-HPLC method ([Buonvicino et al., 2018]). Reaction products were quantified from peak areas (see Figure 2A) based on coelution with standards (except for cyclic products from NAD analogues that were not available and were attributed based on UV-spectra and retention times as predicted). Rates were calculated as follows. Hydrolysis and cyclization were measured from product generation from the respective individual dinucleotide substrate used, e.g., free and cyclic ADP-ribosyl moieties from NAD (Figure 1B). A basal value for hydrolysis/cyclization was taken as sum of these latter two products. In addition to that value, base exchange or transglycosidation was calculated from the expected dinucleotide analog formed in the presence of the corresponding free base, e.g., AcPyrAD from AcPyr and NAD.
(§2) The kinetic parameters were calculated from initial rates obtained from replicates via best-fitting analysis using the following Equation 1 for CD38 and Aplysia cyclase, or Equation 2 for hSARM1 SAM-TIR, or Equation 3 for hSARM1 full length(Equation 1) V =Vmax[S]/Km+[S] […] In that case, the resulting single curves were fit to Equation 3 as above to evaluate any competition between NMN and the substrate used (see Table 1).

hCD38 [2] = target: T2, hCD38 (Homo sapiens, UniProt P28907); assay: as above; format: biochemical; settings: for use as substrate (consumption rate): dinucleotide 250 μM, 2–6 h; for effect of metal ion on activity: metal ions 1 mM
T2 construct: a soluble fragment Val43-Ile300 with 6x-His tag at C terminus; 6xHis (C); purchased R&D Systems
T2 sequence (P28907 43-300): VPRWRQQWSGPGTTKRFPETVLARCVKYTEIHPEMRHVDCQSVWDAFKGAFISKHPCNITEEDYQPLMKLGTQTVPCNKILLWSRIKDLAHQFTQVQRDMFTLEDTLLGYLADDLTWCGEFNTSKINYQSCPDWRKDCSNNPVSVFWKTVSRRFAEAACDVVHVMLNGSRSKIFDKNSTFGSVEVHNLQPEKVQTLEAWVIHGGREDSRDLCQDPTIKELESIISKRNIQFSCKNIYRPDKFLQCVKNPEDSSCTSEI
Method: as §1, §2

[3] = target: T3, Aplysia californica ADP ribosyl cyclase (Aplysia californica, UniProt P29241); settings: for use as substrate (consumption rate): dinucleotide 250 μM, 25°C, 2–6 h; for effect of metal ion on activity: metal ions 1 mM
T3 sequence (P29241 25-282): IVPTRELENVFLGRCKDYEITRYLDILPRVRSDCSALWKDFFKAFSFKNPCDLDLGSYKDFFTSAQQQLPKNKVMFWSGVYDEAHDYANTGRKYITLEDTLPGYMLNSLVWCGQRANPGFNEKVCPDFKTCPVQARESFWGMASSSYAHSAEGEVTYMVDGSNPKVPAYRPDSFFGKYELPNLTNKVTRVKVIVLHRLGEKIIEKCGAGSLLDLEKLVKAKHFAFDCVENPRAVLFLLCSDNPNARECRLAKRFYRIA
Method: as §1, §2

hSARM1 full length [4] = target: T1, hSARM1 full length; assay: Base exchange reactions at neutral pH (HPLC); format: biochemical; settings: for increase of all hSARM1 activities by trigger (plateau): hSARM1 full length, NMN 0.2 mM or VMN 0.05 mM, NAD or NADP 250 μM with or without bases
Method: (§3) Multiple time stops from individual assays as above were analyzed for linearity, then extents of hydrolysis (white bars), cyclization (red bars), or base exchange (black bars) were calculated from each corresponding product as shown in Figure 1B and STAR methods. […] See also Figures S3–S5, and Table S1
as §1

hCD38 [5] = target: T2, hCD38; assay: Base exchange reactions at neutral pH (HPLC); format: biochemical; settings: NADP […] alone or + AcPyr 2 mM / Vacor 0.5 mM / Na 2 mM
Method: as §3, §1

[6] = hSARM1 full length +NMN 0.2 mM, NAD […]
[7] = hSARM1 full length +NMN 0.2 mM, NADP […]
[8] = hSARM1 full length +VMN 0.05 mM, NAD […]
[9] = hSARM1 full length +VMN 0.05 mM, NADP […]

Molecule: NC(=O)C1=CN([C@@H]2O[C@H](COP(=O)(O)OP(=O)(O)OC[C@H]3O[C@@H](n4cnc5c(N)ncnc54)[C@H](O)[C@@H]3O)[C@@H](O)[C@H]2O)C=CC1 [NADH]
- use as substrate (consumption rate) (hSARM1 full length [1]): negligible usage
- use as substrate (consumption rate) (hCD38 [2]; hCD38, 25°C): negligible usage
- use as substrate (consumption rate) [3]: negligible usage

Molecule: NC(=O)C1=CN([C@@H]2O[C@H](COP(=O)(O)OP(=O)(O)OC[C@H]3O[C@@H](n4cnc5c(N)ncnc54)[C@H](OP(=O)(O)O)[C@@H]3O)[C@@H](O)[C@H]2O)C=CC1 [NADPH]
- use as substrate (consumption rate) (hSARM1 full length [1]): negligible usage
- use as substrate (consumption rate) (hCD38 [2]; hCD38, 25°C): negligible usage
- use as substrate (consumption rate) [3]: negligible usage

Molecule: NC(=O)c1ccc[n+]([C@@H]2O[C@H](COP(=O)([O-])OP(=O)(O)OC[C@H]3O[C@@H](n4cnc5c(=O)[nH]c(N)nc54)[C@H](O)[C@@H]3O)[C@@H](O)[C@H]2O)c1 [NGD, nicotinamide guanine dinucleotide]
- cyclization, share of total substrate consumption (hCD38 [2]; CD38): ~80%

Molecule: NC(=O)c1ccc[n+]([C@@H]2O[C@H](COP(=O)([O-])O)[C@@H](O)[C@H]2O)c1 [NMN, nicotinamide mononucleotide]
- cyclization, share of products (hSARM1 full length [4]; [6]): 9.51%
- hydrolysis, share of products (hSARM1 full length [4]; [6]): 90.49%
- rate (hSARM1 full length [4]; hSARM1 full length +NMN 0.2 mM, NAD […] alone or + free base): 187.9 ±26.9 mU/mg
- rate (relative fold) (hSARM1 full length [4]; hSARM1 full length +NMN 0.2 mM, NAD […], relative to NAD alone without trigger): 8.61±1.23 fold
- cyclization, share of products (hSARM1 full length [4]; [7]): ~ 0.05%
- hydrolysis, share of products (hSARM1 full length [4]; [7]): 99.95%
- rate (hSARM1 full length [4]; hSARM1 full length +NMN 0.2 mM, NADP […] alone or + free base): 117.3 ±4.72 mU/mg
- rate (relative fold) (hSARM1 full length [4]; hSARM1 full length +NMN 0.2 mM, NADP […], relative to NADP alone without trigger): 7.98 ±0.321 fold
- increase of all hSARM1 activities by trigger (plateau) (hSARM1 full length [4]): 8- to 10 fold

Molecule: Nc1ncnc2c1ncn2[C@@H]1O[C@H](COP(=O)(O)OP(=O)(O)OC[C@H]2O[C@@H]([n+]3cccc(C(=O)O)c3)[C@H](O)[C@@H]2O)[C@@H](O)[C@H]1O [NaAD, nicotinic acid adenine dinucleotide]
- use as substrate (consumption rate) (hSARM1 full length [1]): negligible usage
- use as substrate (consumption rate) (hCD38 [2]; hCD38, 25°C): negligible usage
- use as substrate (consumption rate) [3]: negligible usage

Molecule: Nc1ncnc2c1ncn2[C@@H]1O[C@H](COP(=O)(O)OP(=O)([O-])OC[C@H]2O[C@@H]([n+]3cccc(CNC(=O)Nc4ccc([N+](=O)[O-])cc4)c3)[C@H](O)[C@@H]2O)[C@@H](O)[C@H]1O [VAD, vacor adenine dinucleotide]
- use as substrate (consumption rate) (hSARM1 full length [1]): no activity
- use as substrate (consumption rate) (hCD38 [2]; hCD38, 25°C): no activity
- use as substrate (consumption rate) [3]: no activity

Molecule: O=C(NCc1ccc[n+]([C@@H]2O[C@H](COP(=O)(O)O)[C@@H](O)[C@H]2O)c1)Nc1ccc([N+](=O)[O-])cc1 [VMN, vacor mononucleotide]
- cyclization, share of products (hSARM1 full length [4]; [8]): 8.79%
- hydrolysis, share of products (hSARM1 full length [4]; [8]): 91.21%
- rate (hSARM1 full length [4]; hSARM1 full length +VMN 0.05 mM, NAD […] alone or + free base): 210.1 ±14.4 mU/mg
- rate (relative fold) (hSARM1 full length [4]; hSARM1 full length +VMN 0.05 mM, NAD […], relative to NAD alone without trigger): 9.63 ±0.660 fold
- cyclization, share of products (hSARM1 full length [4]; [9]): 0.64%
- hydrolysis, share of products (hSARM1 full length [4]; [9]): 99.36%
- rate (hSARM1 full length [4]; hSARM1 full length +VMN 0.05 mM, NADP […] alone or + free base): 138.3 ±1.72 mU/mg
- rate (relative fold) (hSARM1 full length [4]; hSARM1 full length +VMN 0.05 mM, NADP […], relative to NADP alone without trigger): 9.41 ±0.117 fold
- increase of all hSARM1 activities by trigger (plateau) (hSARM1 full length [4]): 8- to 10 fold

Molecule: [Cu+2] [copper]
- effect of metal ion on activity (hSARM1 full length [1]): clear inhibition
- effect of metal ion on activity (hCD38 [2]; hCD38): clear inhibition
- effect of metal ion on activity [3]: clear inhibition

Molecule: [Mg] [magnesium]
- effect of metal ion on activity (hSARM1 full length [1]): no effect
- effect of metal ion on activity (hCD38 [2]; hCD38): no effect
- effect of metal ion on activity [3]: no effect

Molecule: [Zn+2] [zinc]
- effect of metal ion on activity (hSARM1 full length [1]): clear inhibition
- effect of metal ion on activity (hCD38 [2]; hCD38): clear inhibition
- effect of metal ion on activity [3]: clear inhibition

Molecule: NC(=O)c1ccc[n+]([C@H]2O[C@H](COP(=O)([O-])OP(=O)(O)OC[C@H]3O[C@@H](n4cnc5c(N)ncnc54)[C@H](O)[C@@H]3O)[C@@H](O)[C@H]2O)c1 [αNAD, alpha-NAD]
- use as substrate (consumption rate) (hSARM1 full length [1]): no activity
- use as substrate (consumption rate) (hCD38 [2]; hCD38, 25°C): no activity
- use as substrate (consumption rate) [3]: no activity

Molecule: nicotinamide adenine dinucleotide phosphate [NADP]
- rate (hCD38 [5]): 3521 ±605 mU/mg
- Vmax (hCD38 [2]; hCD38, substrate as labelled): 4376 ± 24.1 mU/mg
- Km (hCD38 [2]; hCD38, substrate as labelled, 25°C, pH 7.5): 11.7 ± 0.88 µM
- Km ([3]; substrate as labelled): 384 ± 0.17 µM
- Vmax ([3]; substrate as labelled): 20,043 ± 724 mU/mg

Molecule: nicotinic acid adenine dinucleotide phosphate [NaADP]
- use as substrate (consumption rate) (hSARM1 full length [1]): negligible usage
- use as substrate (consumption rate) (hCD38 [2]; hCD38, 25°C): negligible usage
- use as substrate (consumption rate) [3]: negligible usage
